Reference: patent publication US12077503B2, “Substituted cyclic amides and their use as herbicides” (FMC CORPORATION, priority 2015, dated 2024)

Experiments:
Type in all cases: in vivo
[1] = system: ryegrass, Italian (Italian ryegrass, Lolium multiflorum); experiment: Test A preemergence
Summary of the method: (§1)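 Preemergence directed soil spray on seeded pots, or postemergence application to plants 2–10 cm, one- to two-leaf. Solvent mixture non-phytotoxic, with surfactant. Scored ~10 d later, visually, 0–100 vs untreated.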

[2] = system: ragweed (common ragweed, Ambrosia elatior); experiment: Test A preemergence
Summary of the method: as §1

Kochia (Kochia scoparia) [3] = experiment: Test A preemergence
Summary of the method: as §1

[4] = system: pigweed (Amaranthus retroflexus); experiment: Test A preemergence
[5] = system: giant foxtail (Setaria faberii); experiment: Test A preemergence
Summary of the method: as §1

[6] = system: barnyardgrass (Echinochloa crus-galli); experiment: Test A preemergence
Summary of the method: as §1

[7] = system: ryegrass, Italian (Italian ryegrass, Lolium multiflorum); experiment: Test A postemergence
Summary of the method: as §1

[8] = system: ragweed (common ragweed, Ambrosia elatior); experiment: Test A postemergence
Summary of the method: as §1

Kochia (Kochia scoparia) [9] = experiment: Test A postemergence
Summary of the method: as §1

[10] = system: pigweed (Amaranthus retroflexus); experiment: Test A postemergence
Summary of the method: as §1

[11] = system: giant foxtail (Setaria faberii); experiment: Test A postemergence
Summary of the method: as §1

corn (Zea mays) = experiment: Test A postemergence
Summary of the method: as §1

[12] = system: barnyardgrass (Echinochloa crus-galli); experiment: Test A postemergence
Summary of the method: as §1

[13] = system: Galium (catchweed bedstraw, Galium aparine); experiment: Test A postemergence
Summary of the method: as §1

[14] = system: wheat (Triticum aestivum); experiment: Test A postemergence
Summary of the method: as §1

[15] = system: blackgrass (Alopecurus myosuroides); experiment: Test A postemergence
Summary of the method: as §1

[16] = system: sedge, umbrella (small-flower umbrella sedge, Cyperus difformis); experiment: Test B flooded paddy test; conditions: Flood, 250 g ai/ha; for Sedge, Umbrella plant response rating: 0 to 100 scale where 0 is no effect and 100 is complete control
Summary of the method: (§2)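 Greenhouse paddy pots with 2-leaf stage plants received compound by direct addition to floodwater 3 cm deep, kept at that level. Scored visually at 13–15 d versus controls (0 no effect; 100 complete control).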

[17] = system: ducksalad (Heteranthera limosa); experiment: Test B flooded paddy test; conditions: Flood, 250 g ai/ha; for Ducksalad plant response rating: 0 to 100 scale where 0 is no effect and 100 is complete control
Summary of the method: as §2

[18] = system: barnyardgrass (Echinochloa crus-galli); experiment: Test B flooded paddy test; conditions: Flood, 250 g ai/ha; for Barnyardgrass plant response rating: 0 to 100 scale where 0 is no effect and 100 is complete control
Summary of the method: as §2

rice (Oryra sativa) = experiment: Test B flooded paddy test; conditions: Flood, 250 g ai/ha; for Rice plant response rating: 0 to 100 scale where 0 is no effect and 100 is complete control
Summary of the method: as §2

[19] = 125 g ai/ha, Preemergence, visual injury rating after approximately 10 d
[20] = 500 g ai/ha, preemergence, visual injury rating about 10 d after treatment, 0 to 100 scale (0 no effect, 100 complete control)
[21] = 125 g ai/ha, Postemergence, visual injury after approximately 10 d, 0 to 100 scale where 0 is no effect and 100 is complete control
[22] = 500 g ai/ha, postemergence, visual injury, 0 to 100 scale (0 no effect, 100 complete control), approx. 10 d
[23] = 31 g ai/ha, Preemergence, 0 to 100 scale where 0 is no effect and 100 is complete control
[24] = 125 g ai/ha, preemergence, 0 to 100 scale where 0 is no effect and 100 is complete control, approx. 10 d
[25] = 125 g ai/ha, postemergence, visual injury vs untreated controls after approx. 10 d, 0 = no effect, 100 = complete control
[26] = Postemergence, 31 g ai/ha, visual injury after approx. 10 d, 0 to 100 scale, 0 no effect, 100 complete control

CN1C[C@H](c2cccc(OC(F)(F)C(F)F)c2)[C@@H](C(=O)Nc2ccccc2[S+](C)[O-])C1=O (some centres unmarked) [Compound 863]
pest or weed control at 125 g/ha ([1]; Lolium multiflorum, pre-emergence, 240 h, 125 g ai/ha, preemergence, 0 to 100 scale where 0 is no effect and 100 is complete control, read-out: Ryegrass, Italian plant response rating): 0%
pest or weed control at 125 g/ha ([2]; Ambrosia artemisiifolia, pre-emergence, 240 h, 125 g ai/ha, preemergence, 0 to 100 scale where 0 is no effect and 100 is complete control, read-out: Ragweed plant response rating): 0%
pest or weed control at 125 g/ha (Kochia (Kochia scoparia) [3]; Bassia scoparia, pre-emergence, 240 h, 125 g ai/ha, preemergence, 0 to 100 scale where 0 is no effect and 100 is complete control, read-out: Kochia plant response rating): 80%
pest or weed control at 125 g/ha ([4]; Amaranthus retroflexus, pre-emergence, 240 h, 125 g ai/ha, preemergence, 0 to 100 scale where 0 is no effect and 100 is complete control, read-out: Pigweed plant response rating): 70%
pest or weed control at 125 g/ha ([5]; Setaria faberi, pre-emergence, 240 h, 125 g ai/ha, preemergence, 0 to 100 scale where 0 is no effect and 100 is complete control, read-out: Foxtail, Giant plant response rating): 90%
pest or weed control at 125 g/ha ([6]; Echinochloa crus-galli, pre-emergence, 240 h, 125 g ai/ha, preemergence, 0 to 100 scale where 0 is no effect and 100 is complete control, read-out: Barnyardgrass plant response rating): 50%
pest or weed control at 125 g/ha ([7]; Lolium multiflorum, post-emergence, 240 h, 125 g ai/ha, postemergence, visual injury rating after approximately 10 d, read-out: Ryegrass, Italian plant response rating (0 to 100 scale, 0 no effect, 100 complete control)): 0%
pest or weed control at 125 g/ha ([8]; Ambrosia artemisiifolia, post-emergence, 240 h, 125 g ai/ha, postemergence, visual injury rating after approximately 10 d, read-out: Ragweed plant response rating (0 to 100 scale, 0 no effect, 100 complete control)): 0%
pest or weed control at 125 g/ha (Kochia (Kochia scoparia) [9]; Bassia scoparia, post-emergence, 240 h, 125 g ai/ha, postemergence, visual injury rating after approximately 10 d, read-out: Kochia plant response rating (0 to 100 scale, 0 no effect, 100 complete control)): 40%
pest or weed control at 125 g/ha ([10]; Amaranthus retroflexus, post-emergence, 240 h, 125 g ai/ha, postemergence, visual injury rating after approximately 10 d, read-out: Pigweed plant response rating (0 to 100 scale, 0 no effect, 100 complete control)): 50%
pest or weed control at 125 g/ha ([11]; Setaria faberi, post-emergence, 240 h, 125 g ai/ha, postemergence, visual injury rating after approximately 10 d, read-out: Foxtail, Giant plant response rating (0 to 100 scale, 0 no effect, 100 complete control)): 20%
plant injury at 125 g/ha (corn (Zea mays); Zea mays, post-emergence, 240 h, 125 g ai/ha, postemergence, visual injury rating after approximately 10 d, read-out: Corn plant response rating (0 to 100 scale, 0 no effect, 100 complete control)): 30%
pest or weed control at 125 g/ha ([12]; Echinochloa crus-galli, post-emergence, 240 h, 125 g ai/ha, postemergence, visual injury rating after approximately 10 d, read-out: Barnyardgrass plant response rating (0 to 100 scale, 0 no effect, 100 complete control)): 70%
pest or weed control at 125 g/ha ([13]; Galium, post-emergence, 240 h, 125 g ai/ha, postemergence, visual injury rating after approximately 10 d, read-out: Galium plant response rating (0 to 100 scale, 0 no effect, 100 complete control)): 30%
plant injury at 125 g/ha ([14]; Triticum aestivum, post-emergence, 240 h, 125 g ai/ha, postemergence, visual injury rating after approximately 10 d, read-out: Wheat plant response rating (0 to 100 scale, 0 no effect, 100 complete control)): 0%
pest or weed control at 125 g/ha ([15]; Alopecurus myosuroides, post-emergence, 240 h, 125 g ai/ha, postemergence, visual injury rating after approximately 10 d, read-out: Blackgrass plant response rating (0 to 100 scale, 0 no effect, 100 complete control)): 0%
pest or weed control at 250 g/ha ([16]; Cyperus difformis, scale of 0 to 100 where 0 is no effect and 100 is complete control, read-out: Sedge, Umbrella plant response rating): 0%
pest or weed control at 250 g/ha ([17]; Heteranthera limosa, scale of 0 to 100 where 0 is no effect and 100 is complete control, read-out: Ducksalad plant response rating): 0%
pest or weed control at 250 g/ha ([18]; Echinochloa crus-galli, scale of 0 to 100 where 0 is no effect and 100 is complete control, read-out: Barnyardgrass plant response rating): 0%
pest or weed control at 250 g/ha (rice (Oryra sativa); Oryza sativa, scale of 0 to 100 where 0 is no effect and 100 is complete control, read-out: Rice plant response rating): 0%

Cc1ccc([C@H]2CN(C)C(=O)[C@@H]2C(=O)Nc2ccccc2[S+](C)[O-])cc1Cl (some centres unmarked) [Compound 1017]
Ryegrass, Italian plant response rating (0 to 100 scale, 0 is no effect, 100 is complete control) [1, 19]: 0
Ryegrass, Italian plant response rating [1, 20]: 70
Ragweed plant response rating (0 to 100 scale, 0 is no effect, 100 is complete control) [2, 19]: 0
Ragweed plant response rating [2, 20]: 90
Kochia plant response rating (0 to 100 scale, 0 is no effect, 100 is complete control) (Kochia (Kochia scoparia) [3]; [19]): 0
Kochia plant response rating (Kochia (Kochia scoparia) [3]; [20]): 70
Pigweed plant response rating (0 to 100 scale, 0 is no effect, 100 is complete control) [4, 19]: 50
Pigweed plant response rating [4, 20]: 60
Foxtail, Giant plant response rating (0 to 100 scale, 0 is no effect, 100 is complete control) [5, 19]: 90
Foxtail, Giant plant response rating [5, 20]: 90
Barnyardgrass plant response rating (0 to 100 scale, 0 is no effect, 100 is complete control) [6, 19]: 90
Barnyardgrass plant response rating [6, 20]: 90
Plant response rating, Ryegrass, Italian [7, 21]: 30
Plant response rating, Ryegrass, Italian [7, 22]: 50
Plant response rating, Ragweed [8, 21]: 0
Plant response rating, Ragweed [8, 22]: 40
Plant response rating, Kochia (Kochia (Kochia scoparia) [9]; [21]): 40
Plant response rating, Kochia (Kochia (Kochia scoparia) [9]; [22]): 60
Plant response rating, Pigweed [10, 21]: 0
Plant response rating, Pigweed [10, 22]: 40
Plant response rating, Foxtail, Giant [11, 21]: 90
Plant response rating, Foxtail, Giant [11, 22]: 90
Plant response rating, Corn (corn (Zea mays); [21]): 80
Plant response rating, Corn (corn (Zea mays); [22]): 90
Plant response rating, Barnyardgrass [12, 21]: 90
Plant response rating, Barnyardgrass [12, 22]: 90
Plant response rating, Galium [13, 21]: 40
Plant response rating, Galium [13, 22]: 70
Plant response rating, Wheat [14, 21]: 20
Plant response rating, Wheat [14, 22]: 60
Plant response rating, Blackgrass [15, 21]: 0
Plant response rating, Blackgrass [15, 22]: 40
Sedge, Umbrella plant response rating [16]: 0
Ducksalad plant response rating [17]: 90
Barnyardgrass plant response rating [18]: 70
Rice plant response rating (rice (Oryra sativa)): 30

CN1C[C@@H](c2ccc([N+](=O)[O-])cc2)[C@H](C(=O)Nc2cccc(F)c2F)C1=O [Compound 1165]
Ryegrass, Italian plant response rating [1, 23]: 0
Ryegrass, Italian plant response rating [1, 24]: 0
Ragweed plant response rating [2, 23]: 0
Ragweed plant response rating [2, 24]: 30
Kochia plant response rating (Kochia (Kochia scoparia) [3]; [23]): 0
Kochia plant response rating (Kochia (Kochia scoparia) [3]; [24]): 70
Pigweed plant response rating [4, 23]: 40
Pigweed plant response rating [4, 24]: 50
Foxtail, Giant plant response rating [5, 23]: 70
Foxtail, Giant plant response rating [5, 24]: 90
Barnyardgrass plant response rating [6, 23]: 70
Barnyardgrass plant response rating [6, 24]: 90
Ryegrass, Italian plant response rating (0 to 100 scale) [7, 25]: 20
Plant response rating, Ryegrass, Italian [7, 26]: 0
Ragweed plant response rating (0 to 100 scale) [8, 25]: 0
Plant response rating, Ragweed [8, 26]: 0
Kochia plant response rating (0 to 100 scale) (Kochia (Kochia scoparia) [9]; [25]): 30
Plant response rating, Kochia (Kochia (Kochia scoparia) [9]; [26]): 30
Pigweed plant response rating (0 to 100 scale) [10, 25]: 30
Plant response rating, Pigweed [10, 26]: 10
Foxtail, Giant plant response rating (0 to 100 scale) [11, 25]: 70
Plant response rating, Foxtail, Giant [11, 26]: 70
Corn plant response rating (0 to 100 scale) (corn (Zea mays); [25]): 30
Plant response rating, Corn (corn (Zea mays); [26]): 0
Barnyardgrass plant response rating (0 to 100 scale) [12, 25]: 80
Plant response rating, Barnyardgrass [12, 26]: 40
Galium plant response rating (0 to 100 scale) [13, 25]: 60
Plant response rating, Galium [13, 26]: 20
Wheat plant response rating (0 to 100 scale) [14, 25]: 30
Plant response rating, Wheat [14, 26]: 0
Blackgrass plant response rating (0 to 100 scale) [15, 25]: 0
Plant response rating, Blackgrass [15, 26]: 0
Sedge, Umbrella plant response rating [16]: 0
Ducksalad plant response rating [17]: 90
Barnyardgrass plant response rating [18]: 95
Rice plant response rating (rice (Oryra sativa)): 45
